Common to all, as to assay type: biochemical
The target of one experiment is T1, ALDH2*1/*1 (Homo sapiens, UniProt P05091).
T1 construct: His-tag (N); made in house; host or cells: E. coli BL21 (pTrcHis vector)
T1 sequence (P05091 18-517): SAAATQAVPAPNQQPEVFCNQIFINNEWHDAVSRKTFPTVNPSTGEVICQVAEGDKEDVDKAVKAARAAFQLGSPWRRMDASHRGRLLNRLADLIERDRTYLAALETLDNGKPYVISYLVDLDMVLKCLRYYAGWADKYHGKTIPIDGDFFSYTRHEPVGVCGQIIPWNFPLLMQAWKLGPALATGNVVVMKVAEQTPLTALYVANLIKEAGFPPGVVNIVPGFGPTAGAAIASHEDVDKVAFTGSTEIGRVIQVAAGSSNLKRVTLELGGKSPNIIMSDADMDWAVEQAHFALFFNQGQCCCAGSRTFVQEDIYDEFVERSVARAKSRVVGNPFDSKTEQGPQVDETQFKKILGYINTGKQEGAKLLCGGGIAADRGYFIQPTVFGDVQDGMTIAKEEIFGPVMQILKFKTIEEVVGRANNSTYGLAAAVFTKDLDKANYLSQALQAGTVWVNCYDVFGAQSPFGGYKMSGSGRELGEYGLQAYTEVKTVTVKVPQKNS
Briefly: ALDH2 enzymatic activity, NADH accumulation at 340 nm, acetaldehyde substrate, wild type. Particulars: relative to baseline enzymatic activity (100%); for activity at 2.5 µM: 2.5 μM compound; for activity at 5 µM: 5 μM compound; for activity at 10 µM: 10 μM compound; for activity at 20 µM: 20 μM compound. On the procedure:
(§1) ALDH2 catalyzes the oxidative reaction of substrate acetaldehyde to acetic acid using NAD^+ as a cofactor. Enzymatic activity, or catalytic rate, of aldehyde dehydrogenase (ALDH2) are measured spectrophotometrically at UV wavelength λ340 nm by the accumulation of reduced product NADH derived from NAD^+. Absorbance at λ340 nm is quantitatively proportional to the amount of NADH being produced over time (6.22 O.D. unit=1 mmol of NADH, measured in a 1-cm width standard cuvette). This method is well-established in the literature [e.g. Rex et al., Alcohol Clin. Exp. Res. 9, 147 (1985)].
(§2) ALDH2 catalyzes the oxidative reaction of substrate acetaldehyde to acetic acid using NAD^+ as a cofactor. Enzymatic activity, or catalytic rate, of aldehyde dehydrogenase (ALDH2) can be measured spectrophotometrically at UV wavelength λ340 nm by the accumulation of reduced product NADH derived from NAD^+. Absorbance at λ340 nm is quantitatively proportional to the amount of NADH being produced over time (6.22 O.D. unit=1 mmol of NADH, measured in a 1-cm width standard cuvette). This method is well-established in the literature [e.g. Rex et al., Alcohol Clin. Exp. Res. 9, 147 (1985)].
(§3) Cloning, expression and purification of human ALDH2 wild type and ALDH2*2 recombinant mutant enzymes: Full-length wild type human ALDH2 cDNA was purchased from ATCC (No. MGC-1806. GenBank ID: BC002967). The 18-amino acid mitochondria transport signal sequence was removed by PCR and cloned into the NheI/HindIII sites of a His-tag vector, pTrcHis, using standard molecular cloning techniques. The human ALDH2* cDNA construct containing the Asian E487K mutation was obtained by site-directed mutagenesis to create the E487K substitution of the wild type ALDH2. Both human clones were designed to express a recombinant protein with the His-tag at the N-terminus of the protein. For the co-expression experiments of human ALDH2 wild type and ALDH2*2 heterotetramers, a wild type ALDH2 gene and a ALDH2 E487K gene were inserted separately into the two multiple cloning sites of pETDuet-1 vector. (Novagen, CA, USA). All the vectors were transformed into BL21 E. coli host cells and subjected to 0.5 mM IPTG induction for protein expression at 30° C. Purifications of the recombinant proteins by affinity nickel columns (HisTrap, GE Healthy Science, USA) were carried out using standard protocols according to manufacturer's instructions (Novagen, USA).
(§4) ALDH2 catalyzes the oxidative reaction of substrate acetaldehyde to acetic acid using NAD^+ as a cofactor. Enzymatic activity, or catalytic rate, of aldehyde dehydrogenase (ALDH2) can be measured spectrophotometrically at UV wavelength λ340 nm by the accumulation of reduced product NADH derived from NAD^+. Because compounds of formula (I) are considered to be agonists or “activators” of ALDH2 the enzymatic activity measured will exceed 100% of the baseline enzymatic activity of the enzyme in its normal activation state. As the concentration of the compounds of formula (I) decreases from 20 micromolar to 0.16 micromolar in the presence of ALDH, a decrease in the activation of enzymatic activity is observed for the wild-type ALDH2*1/*1 and the heterozygous form ALDH2*1/*2.

Another experiment has as its target T2, ALDH2*1/*2 (Homo sapiens, UniProt P05091, E504K).
T2 construct: His-tag; made in house; host or cells: E. coli BL21 (pETDuet-1 co-expression)
T2 sequence (P05091 18-517): T1 sequence (P05091 18-517)
T2 sequence (P05091 18-517 E504K): T1 sequence (P05091 18-517) with E487K
Nature of the experiment: ALDH2 enzymatic activity, NADH accumulation at 340 nm, acetaldehyde substrate, heterozygous form. Conditions: relative to baseline enzymatic activity (100%); for activity at 2.5 µM: 2.5 μM compound; for activity at 5 µM: 5 μM compound; for activity at 10 µM: 10 μM compound; for activity at 20 µM: 20 μM compound. On the procedure:
as §1, §2, §3, §4

The next experiment concerns the target T3, ALDH2 (Homo sapiens, UniProt P05091).
T3 construct: His-tag (N); made in house; host or cells: E. coli BL21
T3 sequence (P05091 18-517): T1 sequence (P05091 18-517)
Nature of the experiment: ALDH2 activity with 20 μM of the compound (Table 3). Conditions: 20 μM compound. As for the experimental part: as §1, §2, §4

The record followed here is US9879036B2, “Mitochondrial aldehyde dehydrogenase-2 binding compounds and methods of use thereof” (Aviv Therapeutics, Inc., priority 2014, dated 2018).

Substitutions are numbered along the chain they refer to.

In the case of `COc1ccc(CNC(=O)c2cc(-c3ccncc3CO)cnc2OCC2CC2)cc1F` [AC12], at ALDH2*1/*1, the activity at 2.5 µM was 166%, the activity at 5 µM amounted to 211%, the activity at 10 µM is 305% and the activity at 20 µM was 379%. Besides, at ALDH2*1/*2, the activity at 2.5 µM worked out at 179%, the activity at 5 µM is 236%, the activity at 10 µM is 286% and the activity at 20 µM is 350%. Also, the activity at 20 µM on ALDH2 was more than 250%. For the compound `COc1ccc(CNC(=O)c2cc(-c3sccc3CO)ccc2OCC2CC2)cc1F` [AC28], at ALDH2*1/*1, the activity at 2.5 µM amounted to 197%, the activity at 5 µM is 252%, the activity at 10 µM was 366% and the activity at 20 µM stood at 430%. In addition, on ALDH2*1/*2, the activity at 2.5 µM was 201%, the activity at 5 µM was 239%, the activity at 10 µM was determined as 338% and the activity at 20 µM amounted to 456%. In addition, the activity at 20 µM at ALDH2 was more than 250%. `COc1ccc(CNC(=O)c2cc(-c3nocc3CO)cnc2OCC2CC2)cc1F` [AC41]: at ALDH2, the activity at 20 µM fell in the range of 100 to 150%. Still for that read-out and setting: the figure for `COc1ccc(CNC(=O)c2cc(-c3cnn(C)c3CO)ccc2OCC2CC2)cc1F` [AC33] is more than 250%.

As for `COc1c(F)cc(CNC(=O)c2cc(-c3ncccc3CO)ccc2OCC2CC2)cc1Cl` [AC147], the activity at 20 µM at ALDH2 lay in the range of 150 to 250%. `COc1ccc(CNC(=O)c2cc(-c3ccccc3C(C)O)cnc2OCC2CC2)cc1F` (stereo not shown) [AC89]: the activity at 20 µM at ALDH2 is 100 to 150%.

`COc1cc(F)c(CNC(=O)c2cc(-c3ncccc3CO)ccc2OCC2CC2)cc1F` [AC146]: the activity at 20 µM on ALDH2 was more than 250%. Still for that read-out and setting: the figure for `O=C(NCc1ccccc1)c1cc(-c2ccccc2CO)cnc1OCC1CC1` [AC55] is 100 to 150%; for `O=C(NCc1ccc2c(c1)OCO2)c1cc(-c2ncccc2CO)ccc1OCC1CC1` [AC43] it is 150 to 250%; for `CNCc1ccccc1-c1cnc(OCC2CC2)c(C(=O)NCc2ccc(OC)c(F)c2)c1` [AC70] it is 100 to 150%.

In the case of `[2H]C([2H])([2H])Oc1ccc(CNC(=O)c2cc(-c3ncccc3CO)ccc2OC([2H])([2H])C2CC2)cc1F` [AC159], the activity at 20 µM at ALDH2 was more than 250%. The same measure, in the same setting: the figure for `COc1ccc(CNC(=O)c2cc(-c3ncccc3CO)ccc2OC(C)C)cc1F` [AC102] is more than 250%; for `COc1ccc(CNC(=O)c2cc(-c3ncccc3CO)ccc2OC2CCCC2)cc1F` [AC108] it is more than 250%. For the compound `COc1ccc(CNC(=O)c2cc(-c3ccccc3C(=O)O)cnc2OCC2CC2)cc1F` [AC75], at ALDH2, the activity at 20 µM lay in the range of 100 to 150%. On the same count and under the same terms, the figure for `COc1ccc(CNC(=O)c2cc(-c3cnccc3CO)ccc2OC2CCCC2)cc1F` [AC107] is more than 250%; for `COc1c(F)cc(CNC(=O)c2cc(-c3ncccc3CO)ccc2OCC2CC2)cc1F` [AC145] it is 150 to 250%; for `CCNC(=O)c1ccccc1-c1cnc(OCC2CC2)c(C(=O)NCc2ccc(OC)c(F)c2)c1` [AC80] it is 100 to 150%. Same read-out and setting: with `COc1ccc(CNC(=O)c2cc(-c3ncccc3CO)ccc2OCC2CC2)cc1OC` [AC44] the figure was 150 to 250%. For `COc1ccc(CNC(=O)c2cc(-c3ncccc3CO)ccc2OC2CC2)cc1F` [AC104], the activity at 20 µM on ALDH2 lay in the range of 150 to 250%.

For `[2H]C(O)c1cccnc1-c1ccc(OCC2CC2)c(C(=O)NCc2ccc(OC)c(F)c2)c1` (stereo not shown) [AC152], the activity at 20 µM on ALDH2 is more than 250%.

Take `COc1ccc(CNC(=O)c2cc(-c3ccccc3C(N)=O)cnc2OCC2CC2)cc1F` [AC91]: the activity at 20 µM on ALDH2 lay within 100 to 150%. Same read-out and setting: with `COc1ccc(CNC(=O)c2cc(-c3cnccc3CO)ccc2O)cc1F` [AC93] the figure was 100 to 150%; with `COc1cc(OC)c(CNC(=O)c2cc(-c3ncccc3CO)ccc2OCC2CC2)cc1F` [AC148], 150 to 250%.

Consider `COc1ccc(CNC(=O)c2cc(-c3cnccc3CO)ccc2OC(C)C)cc1F` [AC101], for which the activity at 20 µM on ALDH2 was more than 250%. Turning to `COc1ccc(CNC(=O)c2cc(-c3ncccc3CO)ccc2OCC2CCCC2)cc1F` [AC166], the activity at 20 µM on ALDH2 is more than 250%. Consider `O=C(NCc1ccc(C(F)(F)F)cc1F)c1cc(-c2ccccc2CO)cnc1OCC1CC1` [AC51], for which the activity at 20 µM on ALDH2 was 100 to 150%. Still for that read-out and setting: with `COc1ccc(CNC(=O)c2cc(-c3ncccc3CO)ccc2O)cc1F` [AC94] the figure was 100 to 150%; with `O=C(NCc1ccc(C(F)(F)F)cc1)c1cc(-c2ccccc2CO)cnc1OCC1CC1` [AC49], 100 to 150%. Regarding `COc1ccc(CNC(=O)c2cc(-c3ncccc3CO)ccc2OC)cc1F` [AC96], at ALDH2, the activity at 20 µM fell in the range of 150 to 250%. The same measure, in the same setting: with `CCCOc1ccc(-c2ncccc2CO)cc1C(=O)NCc1ccc(OC)c(F)c1` [AC100] the figure was 150 to 250%; with `COc1ccc(CNC(=O)c2cc(-c3c[nH]nc3CO)ccc2OCC2CC2)cc1F` [AC30], more than 250%. Still for that read-out and setting: with `O=C(NCc1ccc(Cl)c(Cl)c1)c1cc(-c2ccccc2CO)cnc1OCC1CC1` [AC54] the figure was 150 to 250%; with `COc1ccc(CNC(=O)c2cc(-c3ccccc3CCC(C)=O)cnc2OCC2CC2)cc1F` [AC81], 100 to 150%; with `CCOc1ccc(-c2cnccc2CO)cc1C(=O)NCc1ccc(OC)c(F)c1` [AC97], 150 to 250%.

With `COc1ccc(CNC(=O)c2cc(-c3ncccc3CO)ccc2OCC2CC2)c(C)c1F` [AC150], at ALDH2, the activity at 20 µM lay within 150 to 250%. As for `COc1ccc(CNC(=O)c2cc(-c3ncccc3CO)ccc2NCC2CC2)cc1F` [AC42], at ALDH2, the activity at 20 µM lay within 150 to 250%. On the same count and under the same terms, the figure for `O=C(NCc1cc2c(cc1Cl)OCO2)c1cc(-c2ncccc2CO)ccc1OCC1CC1` [AC46] is 100 to 150%; for `COc1ccc(CNC(=O)c2cc(-c3ccccc3/C=N/O)cnc2OCC2CC2)cc1F` [AC90] it is 100 to 150%.

`COc1ccc(CNC(=O)c2cc(-c3nc[nH]c3CO)ccc2OCC2CC2)cc1F` [AC38]: on ALDH2, the activity at 20 µM was in the range of 150 to 250%.
